Laboratory results as given in a melting point compilation (Tetko et al.; mined from patent text by program, amines drawn as free bases though some values may be those of a salt).

Row | SMILES | melting point [°C]
1 | COC(=O)c1cscc1S(=O)(=O)Cl | 71
2 | CCCc1ccc(OC)c2c(C)c(C(=O)OCC)oc12 | 43 to 46
3 | COc1ccc2cc([C@H](C)C(=O)OCCOc3ccc(OCCO)cc3)ccc2c1 | 76 to 78
4 | O=C(NC1CCCc2ccccc21)c1ccc([N+](=O)[O-])cc1 (centres undefined) | 156 to 157
5 | C#CC(OC)c1cc(C(C)(C)C)cc(C(C)(C)C)c1OC (centres undefined) | 68 to 70
6 | OC1CSC(Oc2cnc(-c3ccncc3)c(Cl)c2)C(O)C1O (centres undefined) | 226
7 | CC1(C)C(=O)N(c2ccc(C#N)c(C(F)(F)F)c2)C(=O)N1CCCCCl | 80 to 81
8 | Cc1cc(Cl)nc(Cl)c1N | 83 to 85
9 | Cc1nc(NC(=O)c2cnn3c(C(F)(F)F)cc(-c4ccc(C(F)(F)F)cc4)nc23)sc1S(=O)(=O)NCCO | 166
10 | CNC1=NS(=O)(=O)N=C1NCCSCc1csc(CN(C)C)n1 | 144 to 148
11 | CCCCCCCCCCCCCCOc1ccccc1NS(=O)(=O)c1ccc2c(N=Nc3ccc(OC)cc3)c(O)ccc2c1 | 118 to 121
12 | O=c1ccc(-c2c(-c3ccccc3)nn3ccccc23)nn1C1CN2CCC1CC2 (centres undefined) | 191 to 193
13 | Cn1sc(Cl)c(Cl)c1=O | 119 to 120
14 | OCCCN1CCN(C2=Nc3ccccc3Nc3ccsc32)CC1 | 172 to 173
15 | Nc1cccc2c1nnn2C1CCCCC1 | 54 to 60
16 | COc1ccc(C2CCCN(C(=O)C(F)(F)F)C2)cc1NC(=O)NOCc1ccccc1 (centres undefined) | 134
17 | Cc1nc(C)c(CO)c(C)n1 | 68
18 | CCCCCCCCCCCCCCCCNc1ccc(O)c2c1C(=O)c1c(N)ccc(N)c1C2=O | 174
19 | O=C(NCc1ccccc1)Nc1cc(N2CC(c3ccccc3)CC2=O)ccn1 (centres undefined) | 165 to 166
20 | CC(C)(C)S(=O)(=O)CS(=O)(=O)C(C)(C)C | 152 to 155

Row | SMILES | melting point [°C]
21 | CCN1c2nc(Cl)ccc2NC(=O)c2cc(CCc3ccncc3)cnc21 | 194 to 196
22 | Cc1ccc(S(=O)(=O)OCC2Cc3cccc(-c4ccc(Cl)cc4)c3O2)cc1 (centres undefined) | 130 to 133
23 | O=c1[nH]c2cc(Cl)cc(Cl)c2c(O)c1Sc1ccccc1Cl | 285 to 288
24 | CCCCCCCCCCCCc1ccc(S(=O)(=O)Nc2nnc(C)s2)cc1 | 149 to 150
25 | CCC1C(C)=NN=C(c2ccc(OC)cc2)c2cc(OC)c(OC)cc21 (centres undefined) | 157 to 159
26 | CCOC(=O)N=NC(=O)OCC | 120 to 121
27 | CCNc1ccc(C#N)cc1[N+](=O)[O-] | 130 to 132
28 | Cc1ccc2oc(=O)c(=O)oc2c1 | 121 to 123
29 | N#CCCNC(=O)c1cc(-c2cccc3nn(Cc4cccc(C(F)(F)F)c4)cc23)ccn1 | 166 to 167
30 | CCCCCCCCCCCCS(=O)(=O)N1CCCSC1=C(Br)[N+](=O)[O-] | 70 to 71
31 | CCOC(=O)c1ccc2cc(-c3cc4ccccc4o3)ccn2c1=O | 195 to 197
32 | CCCCCCC(C)(O)CCc1ccc(O)c(O)c1 (centres undefined) | 81 to 83
33 | COc1ccc(Cl)c(CC(Nc2nc3ccc(Cl)cc3cc2C(=O)O)C(=O)O)c1 (centres undefined) | 180 to 185
34 | OC1(c2cnccn2)CN2CCC1C2 (centres undefined) | 180 to 183
35 | CC(=O)Oc1cnccc1CCCOc1cccnc1Oc1cccc(Cl)c1 | 107 to 126
36 | CC(C)(C)OC(=O)N1CCO[C@@H]2Cc3c(O)cccc3C[C@H]21 | 203 to 205
37 | O=c1c(Nc2cccc(C(F)(F)F)c2)c(Nc2ccc(Br)cc2-c2nnn[nH]2)c1=O | 150 to 165
38 | CC(=O)Nc1cc(O)ccc1Oc1ccccc1 | 151 to 153
39 | CC(c1ccc(Br)cc1)N(O)C(=O)NCCO (centres undefined) | 117 to 119
40 | CC(C)(C)NC(=O)Nc1nc2nc(N)ncc2cc1-c1c(F)cccc1F | > 300

Row | SMILES | melting point [°C]
41 | COc1ccc(-c2ccc3c(c2)CCCc2c-3nc3ccc(F)cc3c2C(=O)O)cc1 | > 300
42 | CCOC(=O)c1cc(=O)c2cc(O)c(=O)ccc2[nH]1 | 169 to 172
43 | COc1cc2c(cc1O)CCCC(C(=O)N1CCN(C(=O)c3cc(OC)c(OC)c(OC)c3)CC1)=C2 | 198 to 199
44 | S=C(NCCc1ccccn1)NN=C(CCCCl)c1ccccc1 | 126 to 129
45 | FC(F)(F)c1nc(-c2ncn3c2nc(N2CCOCC2)c2ccccc23)no1 | 182 to 186
46 | Cc1nnc(-c2ccc3occ(-c4cccnc4)c3c2)o1 | 139 to 140
47 | O=C1N/C(=C\C2CC2)C(O)=C1c1ccccc1 | 167 to 170
48 | O=C(O)Cc1c(C(=O)c2ccc(Cl)cc2)[nH]c2ccc(F)cc12 | 233 to 238
49 | CCOC(=O)COc1cc(OCc2ccccc2)ccc1C(=O)CC | 81.5 to 82
50 | CCOC(=O)C(=CNc1ncnc2ccc(NS(C)(=O)=O)cc12)C(=O)OCC | 200 to 202
51 | CCCc1nc2c(C)cnc(C(=O)OC)c2n1Cc1ccc(-c2ccccc2-c2nnnn2C(c2ccccc2)(c2ccccc2)c2ccccc2)cc1 | 239 to 242
52 | CCC(CC)Nc1c(NCc2ccc(Cl)cc2Cl)c(=O)c1=O | 210 to 211
53 | CC(C)(C)c1ccc(CC(=O)CCC2CCCCC2)cc1NC(=O)CC1c2ccccc2Oc2ccccc21 | 134 to 135
54 | CCCc1nc(SSc2nc(CCC)n(-c3ccc([N+](=O)[O-])cc3)n2)nn1-c1ccc([N+](=O)[O-])cc1 | 172
55 | Cn1cncc1COCC(O)c1ccc(OCc2ccccc2)cc1 (centres undefined) | 148 to 150
56 | O=C(O)CCSCCCCCCCCCCCCF | 59
57 | CC(=O)N1c2cc(C)c(S(=O)(=O)C[N+](=O)[O-])c(C)c2CC1C (centres undefined) | 175
58 | Cc1ccc(-c2csc(NS(=O)(=O)c3ccc(C)cc3)n2)cc1 | 186 to 189
59 | O=C(c1ccc(F)cc1F)N1CCc2cc(S(=O)(=O)N3CC(c4ccccc4)NC3=O)ccc21 (centres undefined) | 128
60 | CCCCNC(=O)Nc1ccc(OC(=O)NCCCC)cc1C(=O)NCC1CCN(C(c2ccccc2)c2ccccc2)CC1 | 197 to 199

Further lines, results first:

Row | melting point [°C] | SMILES
61 | 198 to 200 | COc1ccc(S(=O)(=O)N(CCO)c2ccccc2/C=C/c2ccncc2)cc1
62 | 143 to 144 | CS(=O)(=O)Cc1cc(C(=O)CBr)ccc1OCc1ccccc1
63 | 236 to 238 | CC(=O)NC1c2cc3nonc3cc2OC(C)(C)C1OC(C)=O (centres undefined)
64 | 277 to 279 | O=C(O)c1ccc2cc(-c3ccc(OCCCO)c(C45CC6CC(CC(C6)C4)C5)c3)ccc2c1
65 | 66 to 67 | C[Si](C)(C)C#Cc1ccc(C=O)cc1
66 | 76 to 78 | CCCc1c(OCCCCOc2ccc(Sc3ccccc3CC(=O)O)cc2)ccc(C(C)=O)c1O
67 | 195 to 197 | NC(=O)c1ccnc(-c2ccc(Oc3ccc(F)cc3)cc2)n1
68 | 62 to 64 | COC(=O)c1ccc(CCc2ccncc2)cc1
69 | 104 to 106 | N#CCCCCCCn1c(-c2ccccc2)nc(-c2ccccc2)c1-c1ccccc1
70 | 105 | N#CN=C(N)NCCCCNC(=O)C1(NC(=O)CCCC(=O)O)Cc2ccccc2C1
71 | 195 to 196 | CCOC(=O)c1nc2scc(COCc3ccc(F)cc3)c2c(=O)[nH]1
72 | 205 to 207 | CC1(C)Oc2ccc(C#N)cc2[C@@H](NC(=NC#N)N2CCN(Cc3ccccc3)CC2)[C@@H]1O (relative stereo)
73 | 120 | CCOC(=O)C(=Cc1cc(C(C)(C)C)c(O)c(C(C)(C)C)c1)c1cccnc1
74 | 83 to 89 | CCCC[C@H](NC(=O)[C@H](CC(C)C)NC(=O)OCc1ccc(C#N)cc1)C(=O)CSCc1ccco1
75 | 290 to 294 | CC1(O)CN(c2c(F)cc3c(=O)c(C(=O)O)cn(C4CC4)c3c2F)C1
76 | 84.5 to 86 | S=C=Nc1ccc(Sc2nc3ccccc3s2)cc1
77 | 134 to 136 | Cc1cc2c(-c3cccc(C(F)(F)F)c3)nc(-c3ccc(C(F)(F)F)cc3)nc2s1
78 | 170 to 190 | COc1cc(CCCN(C)Cc2ccc(OC)c(OC)c2)ccc1NC(=O)c1cccc2c(=O)c3cccc(F)c3[nH]c12
79 | 119 to 120 | COC(=O)c1cccc(-c2nc(CCl)c(C)o2)c1
80 | 147 to 150 | CN1CCCC1CC(O)c1cccc(O)c1 (centres undefined)

Row | melting point [°C] | SMILES
81 | 101 to 104 | O=C(Nc1ccc(OC(F)(F)F)cc1)N1CC(c2cc(C(F)(F)F)ns2)C(c2ccc(Cl)cc2)=N1 (centres undefined)
82 | 59 to 61 | O=[N+]([O-])c1ccc(C=COC=Cc2ccc([N+](=O)[O-])cc2)cc1
83 | 170 to 176 | Cc1ccc(C(C=NO)=NO)cc1
84 | 122 | Cc1cccc(-c2nc3c(C)cccn3c2-c2ccnc(-c3ccc(CN4CCOCC4)cc3)c2)n1
85 | 330 to 333 | Cn1c(=O)c2cc(C(=O)O)cn2c2ccccc21
86 | 157 | COC(=O)c1ccc(C(=N)NC(=O)OC(C)(C)C)cc1
87 | 65 to 68 | CC1(C)CC(=O)c2c(C3CCC3)sc(C#N)c2C1
88 | 211 to 212 | Cc1ccc(C(=O)Nc2nccc(-c3c(-c4cccc(C)c4)nc4cccnn34)n2)cc1
89 | 111 to 114 | O=C(OCc1ccccc1)C1=C(c2ccccc2)C(c2ccccc2)OC1=O (centres undefined)
90 | 169 to 172 | COc1ccccc1-c1c(C)c(C)c2cnc(Nc3ccc(N4CCOCC4)cc3)nn12
91 | 130 | CC(=O)c1ccc(C2=NC[C@@H](O)[C@H](c3ccccc3)O2)cc1 (racemic)
92 | 68 to 71 | Cc1ccccc1C(=O)Nc1ccc(C(=O)N2c3ccccc3CNc3ccccc32)cc1
93 | 134 to 141 | CCOC(=O)C1CC1c1cc(=O)c2cc(-c3ccccc3)ccc2o1 (centres undefined)
94 | 82 to 85 | COC(=O)c1ccccc1C=Nc1ccc(Oc2ccc(C(F)(F)F)cc2Cl)cc1O
95 | 119 to 121 | CC(=CC#N)CN1C(=O)c2ccccc2S1(=O)=O
96 | 125 to 126 | CC(C)(C)OC(=O)NC(=N)NC(=O)OCc1ccccc1
97 | 162 to 165 | CC1=C(c2ccncc2)SC(Nc2ccccc2)C(=O)N1 (centres undefined)
98 | 230 | Cc1cc(N)nc(CCc2nc3cc(-c4ccccc4)cnc3[nH]2)c1
99 | 222 to 224 | O=C1CCC(N2Cc3c(OCc4cn5ccccc5n4)cccc3C2=O)C(=O)N1 (centres undefined)
